The text below walks through data of US20060134022A1, “Salivary stimulatory compositions and method of use thereof” (priority 2004, published 2006).

The data set is described as follows: Self warming mouthwash temperature increase vs. sulfite concentration on mixing sulfite phase with peroxide phase. It counts as physicochemical. The following applies: approximate (plus/minus 2 degrees). An excerpt:
The saliva stimulation effectiveness of the solution depends on raising its temperature before use. This may be done by conventional external heating means. Alternatively the sulfate, bisulfate or pyrosulfate may be produced in situ by utilizing a solution of the corresponding sulfite, bisulfite or metabisulfite and adding a solution of an orally acceptable peroxide thereto. The resulting reaction produces excess heat, thus raising the solution temperature. While the amount of peroxide added is not critical, it is desirable to use at least an amount substantially equivalent to the stoichiometric amount need to oxidize the salts in their reduced forms to the higher oxidation state.
Note: Temperatures are in Fahrenheit Degrees and are approximate (plus/minus 2 degrees).
Sulfite Concentrations listed below are final concentration in the mouthwash. Since the final mouthwash is formed from equal amounts of 2 separate phases, the sulfite concentration in the sulfite containing phase is double that in the final mouthwash.
Combine equal amounts of Phase A and Phase B, Just prior to use, to form the final mouth rinse

Setting [1] is: 1% final concentration in the mouthwash.
[2] abbreviates: 2% final concentration in the mouthwash.
The mark [3] stands for this setting: 4% final concentration in the mouthwash.

Take `O=S([O-])[O-].[Na+].[Na+]` [Sodium Sulfite]: the “Final Temp.” value by setting is: under setting [1], 98.1 Fahrenheit Degrees; under setting [2], 110.7 Fahrenheit Degrees; under setting [3], 133.5 Fahrenheit Degrees. Besides, the “Temp. Increase” value runs as follows: under setting [1], 10.2 Fahrenheit Degrees; under setting [2], 21.4 Fahrenheit Degrees; under setting [3], 43.0 Fahrenheit Degrees.

As to `O=S([O-])S(=O)(=O)[O-].[Na+].[Na+]` [Sodium Metabisulfite], the “Final Temp.” value under setting [1] is listed as 97.3 Fahrenheit Degrees, the “Final Temp.” value under setting [2] worked out at 113.2 Fahrenheit Degrees and the “Final Temp.” value under setting [3] is listed as 142.0 Fahrenheit Degrees. Besides, the “Temp. Increase” value worked out at 12.1 Fahrenheit Degrees under setting [1], 27.2 Fahrenheit Degrees under setting [2] and 55.9 Fahrenheit Degrees under setting [3].
